Assay results: US6846492B2, “Use of phenylethylamine derivatives for the antimicrobial treatment of surfaces” (Ciba Specialty Chemicals Corporation, priority 2000, dated 2005)
In brackets after ≈: the same amount, converted by molar mass. Where a name gives a salt, the structure may show the parent alone. Read-outs that look alike come from different tables or passages of the source.

Assays:
[1] = test system: Trichophyton rubrum DSM 4167; assay: MIC determination in microtiter plates, Trichophyton rubrum; assay type: cell-based; conditions: DSM4167, 120 h, read-out: MIC [ppm] Trichophyton rubrum DSM 4167
Protocol: (§1) Determination of the Minimum Inhibitory Concentration (MIC Value) in Microtiter Plates
(§2) Casein/soybean flour peptone bouillon for the preparation of pre-cultures of the test bacteria and yeast.
(§3) Mycological slant agar for the pre-culture of moulds
(§4) The test substances are pre-dissolved in dimethyl sulfoxide (DMSO) and tested in a dilution series of 1:2.
(§5) Bacteria and yeast are cultured overnight in CASO bouillon, the mould is cultured overnight on mycological slant agar, and washed off with 10 ml of 0.85% sodium chloride solution (+0.1% TritonX-100).
(§6) All the test organisms are adjusted to an organism count of 1−5×10^6 CFU/ml using 0.85% sodium chloride solution.
(§7) The test substances are pre-pipetted into microtiter plates in an amount of 8 μl per well.
(§8) Pre-diluted organism suspensions are diluted 1:100 in CASO bouillon (bacteria and yeast) or Sabouraud 2% glucose bouillon (mould) and are added in an amount of 192 μl per well to the test substances.
(§9) The test batches are incubated for 48 hours at 37° C. (bacteria and yeast) or for 5 days at 28° C. (mould).
(§10) After incubation, the growth is evaluated by reference to the turbidity of the test batches (optical density) at 620 nm in a microplate reader.
(§11) One microtiter plate is used for each test organism and substance concentration. All the substances are tested in duplicate.

[2] = test system: Staphylococcus aureus ATCC 9144; assay: MIC determination in microtiter plates, Staphylococcus aureus; assay type: cell-based; conditions: read-out: MIC [ppm] Staphylococcus aureus ATCC 9144
Protocol: as §1, §2, §3, §4, §5, §6, §7, §8, §9, §10, §11

[3] = test system: Streptococcus sobrinus DSM 20742; assay: MIC determination in microtiter plates, Streptococcus sobrinus; assay type: cell-based; conditions: read-out: MIC [ppm] Streptococcus sobrinus DSM 20742
Protocol: as §1, §2, §3, §4, §5, §6, §7, §8, §9, §10, §11

[4] = test system: Staphylococcus epidermidis ATCC 12228; assay: MIC determination in microtiter plates, Staphylococcus epidermidis; assay type: cell-based; conditions: read-out: MIC [ppm] Staphylococcus epidermidis ATCC 12228
Protocol: as §1, §2, §3, §4, §5, §6, §7, §8, §9, §10, §11

[5] = test system: Staphylococcus hominis DMS 20328 (= SH); assay: MIC determination in microtiter plates, Staphylococcus hominis; assay type: cell-based; conditions: for MIC: read-out: MIC [ppm] Staphylococcus hominis DSM 20328
In short: (§12)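 Compounds were pre-dissolved in DMSO and tested as a 1:2 dilution series against organisms adjusted to 1−5×10^6 CFU/ml, then diluted 1:100 in CASO broth (bacteria) or Sabouraud 2% glucose broth (A. niger). Incubation was 48 h at 37 °C (bacteria) or 5 days at 28 °C (mould). Growth was judged by turbidity at 620 nm, in duplicate.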

[6] = test system: Aspergillus niger ATCC 6275 (= AN); assay: MIC determination in microtiter plates, Aspergillus niger; assay type: cell-based; conditions: 5 days at 28° C.; for MIC: ATCC6275, 120 h, Table 2c, read-out: MIC [ppm] Aspergillus niger ATCC 6275
In short: as §12

[7] = test system: Epidermophyton floccosum DSM 10709; assay: MIC determination in microtiter plates, Epidermophyton floccosum; assay type: cell-based; conditions: DSM10709, 120 h, read-out: MIC [ppm] Epidermophyton floccosum DSM 10709
Protocol: as §1, §2, §3, §4, §5, §6, §7, §8, §9, §10, §11

[8] = test system: Candida albicans ATCC 10231 (= CA); assay: MIC determination in microtiter plates, Candida albicans; assay type: cell-based; conditions: for MIC: read-out: MIC [ppm] Candida albicans ATC 10231
In short: as §12

[9] = test system: Corynebacterium xerosis ATCC 373; assay: MIC determination in microtiter plates, Corynebacterium xerosis; assay type: cell-based; conditions: read-out: MIC [ppm] Corynebacterium xerosis ATCC 373
Protocol: as §1, §2, §3, §4, §5, §6, §7, §8, §9, §10, §11

[10] = test system: Streptococcus mutans ATCC 25175; assay: MIC determination in microtiter plates, Streptococcus mutans; assay type: cell-based; conditions: read-out: MIC [ppm] Streptococcus mutans ATCC 25175
Protocol: as §1, §2, §3, §4, §5, §6, §7, §8, §9, §10, §11

[11] = test system: Enterococcus hirae ATCC 10541; assay: MIC determination in microtiter plates, Enterococcus hirae; assay type: cell-based; conditions: read-out: MIC [ppm] Enterococcus hirae ATCC 10541
Protocol: as §1, §2, §3, §4, §5, §6, §7, §8, §9, §10, §11

[12] = test system: Porphyromonas gingivalis DSM 20709; assay: MIC determination in microtiter plates, Porphyromonas gingivalis; assay type: cell-based; conditions: read-out: MIC [ppm] Porphyromonas gingivalis DSM 20709
Protocol: as §1, §2, §3, §4, §5, §6, §7, §8, §9, §10, §11

[13] = test system: Actinomyces viscosum DSM 43329; assay: MIC determination in microtiter plates, Actinomyces viscosum; assay type: cell-based; conditions: read-out: MIC [ppm] Actinomyces viscosum DSM 43329
Protocol: as §1, §2, §3, §4, §5, §6, §7, §8, §9, §10, §11

[14] = test system: Propionibacterium acnes ATCC11829; assay: MIC determination in microtiter plates, Propionibacterium acnes; assay type: cell-based; conditions: Cutibacterium acnes, read-out: MIC [ppm] Propionibacterium acnes ATCC11829
Protocol: as §1, §2, §3, §4, §5, §6, §7, §8, §9, §10, §11

[15] = test system: Selenomonas artemidis ATCC 43528; assay: MIC determination in microtiter plates, Selenomonas artemidis; assay type: cell-based; conditions: Centipeda artemidis, ATCC43528; Table 2c; 48 hours at 37° C.; read-out: MIC [ppm] Selenomonas artemidis ATCC 43528
Protocol: as §1, §2, §3, §4, §5, §6, §7, §8, §9, §10, §11

[16] = test system: Escherichia coli NCTC 8196 (= EC); assay: MIC determination in microtiter plates, Escherichia coli; assay type: cell-based; conditions: 48 hours at 37° C.
In short: (§13)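 Test substances in DMSO, 1:2 dilution series; organisms adjusted to 1−5×10^6 CFU/ml, then diluted 1:100 in CASO bouillon (bacteria) or Sabouraud 2% glucose bouillon (mould). Bacteria incubated 48 h at 37° C., mould 5 days at 28° C.; growth read as turbidity at 620 nm, in duplicate.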

[17] = test system: Trichophyton mentagrophytes ATCC 9533; assay: MIC determination in microtiter plates, Trichophyton mentagrophytes; assay type: cell-based; conditions: ATCC9533, 120 h, Table 2c, 5 days at 28° C., read-out: MIC [ppm] Trichophyton mentagrophytes ATCC 9533
Protocol: as §1, §2, §3, §4, §5, §6, §7, §8, §9, §10, §11

[18] = test system: Pseudomonas aeruginosa CIP A-22 (= PA); assay: MIC determination in microtiter plates, Pseudomonas aeruginosa; assay type: cell-based; conditions: Tables 2a/2b, 48 hours at 37° C., ≦20% growth, optical density 620 nm, some approximate values
In short: as §13

[19] = ATCC9144, Table 2c, 48 hours at 37° C.
[20] = DSM20742, Table 2c, 48 hours at 37° C.
[21] = ATCC12228, Table 2c, 48 hours at 37° C.
[22] = DSM20328, Table 2c, 48 hours at 37° C.
[23] = ATCC10231, Table 2c, 48 hours at 37° C.
[24] = ATCC373, Table 2c, 48 hours at 37° C.
[25] = ATCC25175, Table 2c, 48 hours at 37° C.
[26] = ATCC10541, Table 2c, 48 hours at 37° C.
[27] = DSM20709, Table 2c, 48 hours at 37° C.
[28] = Tables 2a/2b, ≦20% growth, optical density 620 nm, some approximate values

CCCCCCCCCCCCOc1ccc(CCN)cc1 [Compound 101, 1-Amino-2-(4-dodecyloxyphenyl)ethane]
MIC ([1]; Table 2c, 5 days at 28° C.): 13 µg/mL (≈ 42.6 µM) | MIC [2, 19]: 13 µg/mL (≈ 42.6 µM) | MIC [3, 20]: 13 µg/mL (≈ 42.6 µM) | MIC [4, 21]: 13 µg/mL (≈ 42.6 µM) | MIC [5, 22]: 8 µg/mL (≈ 26.2 µM) | MIC [6]: 1 µg/mL (≈ 3.27 µM) | MIC ([7]; Table 2c, 5 days at 28° C.): 3 µg/mL (≈ 9.82 µM) | MIC [8, 23]: 50 µg/mL (≈ 164 µM) | MIC [9, 24]: 6 µg/mL (≈ 19.6 µM) | MIC [10, 25]: 6 µg/mL (≈ 19.6 µM) | MIC [11, 26]: 50 µg/mL (≈ 164 µM) | MIC [12, 27]: 25 µg/mL (≈ 81.8 µM)

CCCCCCCCCCCCOc1ccc(CCN)cc1OC [Compound 100, 1-Amino-2-(4-dodecyloxy-3-methoxyphenyl)ethane]
MIC [2, 19]: 25 µg/mL (≈ 74.5 µM) | MIC [3, 20]: 6 µg/mL (≈ 17.9 µM) | MIC ([13]; DSM43329, Table 2c, 48 hours at 37° C.): 25 µg/mL (≈ 74.5 µM) | MIC [4, 21]: 13 µg/mL (≈ 38.7 µM) | MIC [5, 22]: 2 µg/mL (≈ 5.96 µM) | MIC [6]: 2 µg/mL (≈ 5.96 µM) | MIC ([7]; Table 2c, 5 days at 28° C.): 3 µg/mL (≈ 8.94 µM) | MIC [8, 23]: 2 µg/mL (≈ 5.96 µM) | MIC ([14]; ATCC11829, Table 2c, 48 hours at 37° C.): 50 µg/mL (≈ 149 µM) | MIC [9, 24]: 6 µg/mL (≈ 17.9 µM) | MIC [10, 25]: 6 µg/mL (≈ 17.9 µM) | MIC [11, 26]: 25 µg/mL (≈ 74.5 µM) | MIC [12, 27]: 25 µg/mL (≈ 74.5 µM)

CCCCCCOc1ccc(CCN)cc1OCCCCCC [Compound 102, 1-Amino-2-(3,4-dihexyloxyphenyl)ethane]
MIC [1]: 25 µg/mL (≈ 77.8 µM) | MIC ([2]; ATCC9144, 48 h): 13 µg/mL (≈ 40.4 µM) | MIC ([3]; DSM20742, 48 h): 6 µg/mL (≈ 18.7 µM) | MIC ([13]; DSM43329, 48 h): 13 µg/mL (≈ 40.4 µM) | MIC ([4]; ATCC12228, 48 h): 6 µg/mL (≈ 18.7 µM) | MIC ([5]; DSM20328, 48 h): 4 µg/mL (≈ 12.4 µM) | MIC [7]: 6 µg/mL (≈ 18.7 µM) | MIC ([8]; ATCC10231, 48 h): 4 µg/mL (≈ 12.4 µM) | MIC ([14]; ATCC11829, 48 h): 13 µg/mL (≈ 40.4 µM) | MIC [15]: 25 µg/mL (≈ 77.8 µM) | MIC ([9]; ATCC373, 48 h): 6 µg/mL (≈ 18.7 µM) | MIC ([16]; NCTC8196, Table 2c, read-out: MIC [ppm] Escherichia coli NCTC 8196): 4 µg/mL (≈ 12.4 µM) | MIC ([10]; ATCC25175, 48 h): 3 µg/mL (≈ 9.33 µM) | MIC ([11]; ATCC10541, 48 h): 13 µg/mL (≈ 40.4 µM) | MIC ([12]; DSM20709, 48 h): 2 µg/mL (≈ 6.22 µM) | MIC [17]: 25 µg/mL (≈ 77.8 µM)

NCCc1cc(OCc2ccccc2)c(OCc2ccccc2)c(OCc2ccccc2)c1 (as salt: hydrochloride)
melting point: 130 °C

NCCc1ccc(OCc2ccc(C(F)(F)F)cc2)c(OCc2ccc(C(F)(F)F)cc2)c1 [Compound 10]
MIC [ppm] SH ([5]; Tables 2a/2b, 48 hours at 37° C., ≦20% growth, optical density 620 nm, tested at 120, 60, 30, 15, 7.5 and 3.5 ppm, some approximate): 3.75 ppm | MIC [ppm] AN [6, 28]: >120 ppm | MIC [ppm] CA ([8]; Tables 2a/2b, 48 hours at 37° C., ≦20% growth, optical density 620 nm, some approximate values): 3.75 ppm | MIC [ppm] EC [16, 28]: 7.5 ppm | MIC [ppm] PA [18]: >120 ppm
